# According to PMC11094793, “Discovery of LLC0424 as a Potent and Selective in Vivo NSD2 PROTAC Degrader” (Journal of Medicinal Chemistry, 2024):
# What was measured:
# Type in all cases: cell-based, human
# [1] = tested on: CRBN neo-substrates IKZF1, IKZF3, GSPT1, and CK-1α; assay: Selectivity immunoblotting in SEM cells: CRBN neo-substrates; conditions: 2 μM, 8 h
# Procedure: We conducted a global proteomic assay using tandem mass tags (TMT) labeled mass-spectrometry to unbiasedly quantify the protein change upon LLC0424 treatment in VCaP and RPMI-8402 cells. […] We further used SEM cell line to cross-validate the selectivity of LLC0424 for NSD2 over NSD1 and NSD3 as well as CRBN neo-substrates IKZF1, IKZF3, GSPT1, and CK-1α using immunoblotting. […] When we increased the treatment time of LLC0424 in SEM cells, we observed mild decrease of GSPT1 from 12 h (SI, Figure S3F).
# After treatment, the cultured cells were collected and rinsed with phosphate-buffered saline (PBS) in room temperature. The cells were treated with RIPA buffers (ThermoFisher Scientific) supplemented with Halt Protease and Phosphatase Inhibitor Cocktail (ThermoFisher Scientific). After sonication and centrifugation, the total amount of protein in the cell lysates was measured by Pierce Bovine Serum Albumin Standard Pre-Diluted Set (ThermoFisher Scientific). After mixed with LDS-sample buffer (Invitrogen) supplemented with Sample Reducing Agent (Invitrogen) and heated in 70 °C for 10 min, equal amount of protein was loaded into NuPAGE 4–12%, Bis-Tris Protein Gel (ThermoFisher Scientific) or NuPAGE 3–8%, Tris-Acetate Protein Gel (ThermoFisher Scientific), and blotted with primary antibodies. […]
# RPMI-8402 cells = assay: Cell viability assay (CellTiter-Glo, 7 days), RPMI-8402; conditions: Homo sapiens, 168 h, read-out: IC50 (growth, cell viability)
# Procedure: Cells were plated in 50 μL of the corresponding media in 96-well plates. A 2-fold dilution series of 2* concentrated LLC0424 was prepared in a medium with the highest concentration being 60 μM. Then 50 μL of the 2× compound-containing mixture was added to each well with 6 replicates for each concentration, reaching 1× concentration, with the highest concentration being 30 μM. The plate was incubated for 7 days. At the end point, the CellTiter-Glo assay (Promega) was then performed according to the manufacturer’s instruction to determine cell proliferation. The luminescence signal intensity of each well was acquired on an Infinite M1000Pro microplate reader and the data was analyzed using GraphPad Prism software (GraphPad Software).
# SEM cells = assay: RNA-seq global transcriptome analysis; conditions: 14 days of treatment, versus DMSO
# Procedure: NSD2 is the primary methyltransferase that transfers dimethyl to H3K36 in ALL with NSD2 gain-of-function mutation. Therefore, the effects of LLC0424 on H3K36me2 was evaluated in SEM and RPMI-8402 cells. […] Meanwhile, LLC0424 treatment also led to downregulation of H3K36Me2 in RPMI-8402 cells within 24 h (Figure 6B). […] We also conducted a colony formation assay to evaluate the effect of LLC0424 on the stem cell-like property of the leukemia cells. […] As LLC0424 leads to strong degradation of both NSD2-L and NSD2-S, the phenotypic changes upon LLC0424 treatment result from complete inactivation of NSD2 activity, including adaptor-like function of NSD2-S and SET-domain dependent enzymatic function of NSD2-L. The specific contributions of NSD2 isoforms warrant future investigation. To characterize the genes affected by LLC0424 treatment, we performed global transcriptome analysis of SEM cells treated by DMSO, LLC0424, or LLC0424N. […]
# Total RNA was isolated from cells using the miRNeasy Mini Kit (Qiagen). […] Paired-end libraries were sequenced with the Illumina HiSeq 2500 (2 × 100 nucleotide read length) with sequence coverage to 15–20 M paired reads. […] Then we performed the analysis in R. First, EdgeR (edgeR_3.39.6) was used to perform read counts normalization and filtering (counts >10) and then Limma-Voom (limma_3.53.10) was used to analyze differential expression.
compound,measurement,setting,value
"O=C1CCC(N2C(=O)c3ccc(N4CCC(NC(=O)c5ccc(NC(=O)c6ccc(CN(C(=O)c7ccc8c(c7)OCC(=O)N8)C7CC7)cc6)cc5)CC4)cc3C2=O)C(=O)N1 (stereo not drawn) [compound 10l, N-Cyclopropyl-N-(4-((4-((1-(2-(2,6-dioxopiperidin-3-yl)-1,3-dioxoisoindolin-5-yl)piperidin-4-yl)carbamoyl)phenyl)carbamoyl)benzyl)-3-oxo-3,4-dihydro-2H-benzo[b][1,4]oxazine-7-carboxamide]",CRBN neo-substrates protein level,[1],remained unchanged
same,IC50,RPMI-8402 cells,560 nM
same,differentially expressed genes (transcriptome),SEM cells,over 326
